Columns and labels:
[1] = system: Complete Freund's Adjuvant (CFA) induced joint inflammation in rat; conditions: CFA #1
Protocol: Because OA is now known to have an inflammatory component, an animal model that mimics inflammatory arthritis was used to test HA/GlcN/CS formulations. Complete Freund's Adjuvant (CFA) comprises an emulsion of killed bacterial cells that is injected systemically or into the joint of a rat to induce severe inflammation. Two CFA studies were conducted, the first using a 200 uL injection of CFA to induce inflammation (CFA #1), the second using an injection volume of 100 uL (CFA #2). Test articles were prepared using the liquid/liquid formulation method described above.
Von Frey filaments were used to assess mechano-allodynia (pain sensation from a normally non-painful stimulus) on days 6, 7, 8, 17, and 21 following CFA injection. […] This protocol was used to test the 18.0 and 1.8 mg/mL HA/GlcN/CS formulations. As with the rat MMT model, the cumulative improvements in pain relief were calculated. […] In this figure, the 1.8 mg/mL HA/GlcN/CS group and the 18 mg/mL HA/GlcN/CS group are labeled as “G/C 1.8 mg/ml” and “G/C 18 mg/ml”, respectively. The untreated group is labeled as “Untx” in this figure.

[2] = system: Complete Freund's Adjuvant (CFA) induced joint inflammation in rat; assay: CFA model of inflammatory arthritis, study CFA #2 (100 uL CFA); type: in vivo; conditions: daily oral, high dose 30 mg/kg, FIG. 8
Protocol: In CFA #2 the same protocol was followed except for the lower dose of CFA which was intended to induce a less severe inflammatory reaction and subsequently milder pain. Also, daily oral ibuprofen (labeled as “IBR” in FIG. 8) was used as a positive control rather than diclofenac, at doses of 10 mg/kg and high 30 mg/kg. These doses were equivalent to human daily doses of […] and 3600 mg, respectively. Both are considered high doses of ibuprofen that are generally not recommended for long term use.

[3] = system: PGPS (peptidoglycan polysaccharide) reactivation arthritis in male Lewis rats; assay: PGPS model of episodic inflammatory arthritis: weight bearing and gait analysis; type: in vivo; conditions: PGPS second reactivation (after repriming)
Protocol: The PGPS model of arthritis is used to simulate episodic inflammation of the joint. PGPS (peptidoglycan polysaccharide) is a streptococcal cell wall formulation that is injected directly into the joint of the test subject, resulting in a painful inflammatory response. Unlike the continuous FCA response, the inflammatory pain from PGPS is transient, typically lasting only a few days. Following this “priming” injection to the joint, subsequent systemic injections result in inflammatory flares in the previously injected joint for a period of several days. The “reactivation” inflammatory flares can be repeated multiple times, with the inflammatory pain generally decreasing with subsequent reactivation cycles. Alternatively, the joint can be “reprimed” following the initial reactivation, resulting in a more robust inflammatory response in subsequent reactivations.
As with the rat MMT model, the effect of intra-articular therapies is assessed by static weight bearing measurements. […]
In the present experiment, two reactivation cycles were induced in male Lewis rats following the initial PGPS intra-articular injection. […] Weight bearing and gait analysis scores were recorded on days 1, 4, 7, and 14 following the reactivation injection. […] Weight bearing and gait analysis scores were recorded on days 1, 2, 3, and 4 following reactivation. […]

## O=C(O)Cc1ccccc1Nc1c(Cl)cccc1Cl [diclofenac]
[1]
  safety (premature deaths of animals): several animals in the diclofenac group died prematurely
[1]; comparison with HA alone, FIG. 7
  AUC analysis of pain relief compared to HA alone: statistically superior to HA alone
[1]; single IA injection on day 5 after CFA (diclofenac daily oral), days 6, 7, 8, 17, 21, FIG. 7
  AUC analysis of pain relief (Von Frey mechano-allodynia): significant improvement in pain relief

## CC(C)Cc1ccc(C(C)C(=O)O)cc1 (centres unmarked) [ibuprofen]
[2]
  pain relief as cumulative improvement in weight bearing deficiency: significant improvement in pain relief

## C[C@]12C=CC(=O)C=C1CC[C@H]1[C@@H]3C[C@@H](O)[C@](O)(C(=O)CO)[C@@]3(C)C[C@H](O)[C@@]12F [triamcinolone]
[3]
  weight bearing deficit: significant improvement
